According to PubChem BioAssay (NCI):
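In this assay, cells in 96-well plates receive the compound at five concentrations for 48 hours. Endpoints are linearly interpolated between the surrounding concentrations. TGI denotes the concentration required for complete inhibition of growth.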

What was measured:
Test in all cases: inhibition of tumour cell growth, NCI panel, 48 h
RXF 393 renal = tested on: RXF 393 renal
SW-620 colon = tested on: SW-620 colon
MOLT-4 leukemia = tested on: MOLT-4 leukemia
PC-3 prostate = tested on: PC-3 prostate
U251 CNS = tested on: U251 CNS
M14 melanoma = tested on: M14 melanoma
OVCAR-5 ovarian = tested on: OVCAR-5 ovarian
A498 renal = tested on: A498 renal
DU-145 prostate = tested on: DU-145 prostate
OVCAR-3 ovarian = tested on: OVCAR-3 ovarian
SF-539 CNS = tested on: SF-539 CNS
HOP-92 NSCLC = tested on: HOP-92 NSCLC
OVCAR-4 ovarian = tested on: OVCAR-4 ovarian
HCC-2998 colon = tested on: HCC-2998 colon
MDA-MB-435 = tested on: MDA-MB-435
KM12 colon = tested on: KM12 colon
HCT-116 colon = tested on: HCT-116 colon
HT29 colon = tested on: HT29 colon
HL-60(TB) leukemia = tested on: HL-60(TB) leukemia

| SMILES | TGI (RXF 393 renal) | TGI (SW-620 colon) | TGI (MOLT-4 leukemia) | TGI (PC-3 prostate) | TGI (U251 CNS) | TGI (M14 melanoma) | TGI (OVCAR-5 ovarian) | TGI (A498 renal) | TGI (DU-145 prostate) | TGI (OVCAR-3 ovarian) | TGI (SF-539 CNS) | TGI (HOP-92 NSCLC) | TGI (OVCAR-4 ovarian) | TGI (HCC-2998 colon) | TGI (MDA-MB-435) | TGI (KM12 colon) | TGI (HCT-116 colon) | TGI (HT29 colon) | TGI (HL-60(TB) leukemia) |
| --- | --- | --- | --- | --- | --- | --- | --- | --- | --- | --- | --- | --- | --- | --- | --- | --- | --- | --- | --- |
| Cc1n[nH]c(=O)n1/N=C/c1c[nH]c2ccccc12 | 82.3 µM | > 100 µM | > 100 µM | > 100 µM | > 100 µM | > 100 µM | > 100 µM | > 100 µM | > 100 µM | > 100 µM | > 100 µM | > 100 µM | > 100 µM | > 100 µM | > 100 µM | > 100 µM | > 100 µM |  |  |
| CCOP(=O)(OCC)/C(C#N)=C/c1cccn1CC(C)C | > 100 µM | > 100 µM | > 100 µM | > 100 µM | > 100 µM | > 100 µM | > 100 µM | > 100 µM | > 100 µM | > 100 µM | > 100 µM | > 100 µM |  | > 100 µM | > 100 µM | > 100 µM | > 100 µM | > 100 µM |  |
| FC(F)(Sc1ccccc1)c1nc2ccccc2o1 | > 100 µM | > 100 µM | 52.2 µM | > 100 µM | > 100 µM | > 100 µM | > 100 µM | > 100 µM | > 100 µM | > 100 µM | > 100 µM | > 100 µM | > 100 µM | > 100 µM | > 100 µM | > 100 µM | > 100 µM | > 100 µM |  |
| CC#C[I+]c1ccccc1 | 36.9 µM |  | 42.2 µM |  | 29.1 µM | 37.1 µM | 77.8 µM | > 100 µM |  | 33.9 µM | 35.1 µM | 30.8 µM | 46.3 µM | 56.6 µM |  | 40.1 µM | 35.3 µM | 34.5 µM | 33.8 µM |
| COc1nc2sc3c(c2c(=O)n1CCCSSCCCn1c(OC)nc2sc4c(c2c1=O)CCCC4)CCCC3 | > 100 µM |  | > 100 µM | > 100 µM | > 100 µM | > 100 µM | > 100 µM |  | > 100 µM |  | > 100 µM | > 100 µM | > 100 µM | > 100 µM | > 100 µM | > 100 µM | > 100 µM | > 100 µM |  |
| COC(=O)C(Cc1ccccc1)OC(=O)C(N)CC(=O)O (configuration not stated) | > 100 µM | > 100 µM | > 100 µM | > 100 µM |  | > 100 µM | > 100 µM |  | > 100 µM | > 100 µM | > 100 µM | > 100 µM |  | > 100 µM | > 100 µM |  | > 100 µM | > 100 µM |  |
| c1cncc(-c2ncc3cccnc3n2)c1 | > 100 µM | > 100 µM | > 100 µM | > 100 µM | > 100 µM |  | > 100 µM | > 100 µM | > 100 µM | > 100 µM | > 100 µM | > 100 µM | > 100 µM | > 100 µM |  | > 100 µM | > 100 µM | > 100 µM | > 100 µM |
| Cc1cccc(-c2cc(=S)c3cc(N4CCCC4)ccc3[nH]2)c1 | > 100 µM | > 100 µM | > 100 µM | > 100 µM | > 100 µM | > 100 µM | > 100 µM | > 100 µM | > 100 µM | > 100 µM | > 100 µM | > 100 µM | > 100 µM | > 100 µM | > 100 µM | > 100 µM | > 100 µM |  |  |
| CN(C)c1nc(NN)c2c(-c3ccccc3)c(-c3ccccc3)oc2n1 | > 100 µM | > 100 µM | > 100 µM |  | > 100 µM | > 100 µM | > 100 µM | > 100 µM | > 100 µM |  | > 100 µM | > 100 µM | > 100 µM | > 100 µM | > 100 µM | > 100 µM | > 100 µM | > 100 µM |  |
| COc1ccc2oc(C(=O)N3CC(CCl)c4ccc([N+](=O)[O-])cc43)cc2c1 (configuration not stated) | 34 µM | > 100 µM |  | > 100 µM | > 100 µM | > 100 µM |  | 58.5 µM | > 100 µM |  | > 100 µM | > 100 µM | > 100 µM | > 100 µM | > 100 µM | > 100 µM | > 100 µM |  |  |
| Cc1ccc(S(=O)(=O)OC2C(C3COC(C)(C)O3)OC3OC(C)(C)OC32)cc1 (configuration not stated) | > 100 µM | > 100 µM | > 100 µM | > 100 µM | > 100 µM | > 100 µM | > 100 µM | > 100 µM | > 100 µM | > 100 µM |  | > 100 µM | > 100 µM | > 100 µM | > 100 µM | > 100 µM | > 100 µM | > 100 µM |  |
| COc1cccc(/C=C2\CCCCCC2=O)c1 |  | > 100 µM | > 100 µM | > 100 µM | > 100 µM | > 100 µM | > 100 µM | > 100 µM | > 100 µM | > 100 µM |  | > 100 µM | > 100 µM | > 100 µM | > 100 µM | > 100 µM | > 100 µM | > 100 µM |  |
| COc1ccc2c(c1)OC[C@@H]1c3cc4c(cc3O[C@H]21)OCO4 | > 100 µM | > 100 µM | > 100 µM |  | > 100 µM | > 100 µM | > 100 µM | > 100 µM |  | > 100 µM | > 100 µM | > 100 µM | > 100 µM | > 100 µM |  | > 100 µM | > 100 µM | > 100 µM | > 100 µM |
| CC(=O)O[C@H]1C(=O)[C@@]2(C)C(C(OC(=O)c3ccccc3)[C@]3(O)CC(OC(=O)C(O)C(NC(=O)c4ccc(C)cc4)c4ccccc4)C(C)=C1C3(C)C)[C@]1(OC(C)=O)CO[C@@H]1C[C@@H]2O (some centres not stated) | 0.143 µM |  | 7.39 µM |  | > 25 µM |  | 3.98 µM | 14.1 µM |  | < 0.0025 µM | 0.0119 µM |  | > 25 µM |  |  | 19.8 µM | 0.411 µM |  | 3.35 µM |
| CN(/N=C/C=N/N(C)C1=NCCCCN1)C1=NCCCCN1 | > 100 µM | > 100 µM | > 100 µM | > 100 µM | > 100 µM | > 100 µM | > 100 µM |  |  | > 100 µM | > 100 µM |  | > 100 µM | > 100 µM | > 100 µM |  | > 100 µM | > 100 µM |  |
| Clc1c(Cl)c2c(Cl)c(Cl)c1C[P+](c1ccccc1)(c1ccccc1)CC[P+](c1ccccc1)(c1ccccc1)Cc1c(Cl)c(Cl)c(c(Cl)c1Cl)C[P+](c1ccccc1)(c1ccccc1)CC[P+](c1ccccc1)(c1ccccc1)C2 | 10.9 µM | 13.6 µM | 10.5 µM |  | 12.4 µM | 16.2 µM | 13.2 µM | 24.4 µM |  | 8.97 µM | 16.2 µM | 6.31 µM | 8.59 µM | 14.5 µM |  | 6.12 µM | 9.71 µM | 10.3 µM |  |
| O=C(NC1=NC2C=CC([N+](=O)[O-])=CC2S1)C(=O)Nn1c(=S)[nH]c2ccccc2c1=O (configuration not stated) | > 100 µM | > 100 µM | > 100 µM | > 100 µM | > 100 µM | > 100 µM | > 100 µM | > 100 µM |  | > 100 µM | > 100 µM | > 100 µM | > 100 µM | > 100 µM | > 100 µM | > 100 µM | > 100 µM | > 100 µM | > 100 µM |
| Cc1c2c(n(Cc3ccccn3)c1C)NN=C(C#N)S2(=O)=O |  | > 100 µM | > 100 µM | > 100 µM | > 100 µM | > 100 µM | > 100 µM | > 100 µM | > 100 µM | > 100 µM | > 100 µM | > 100 µM | > 100 µM | > 100 µM | > 100 µM | > 100 µM | > 100 µM | > 100 µM |  |
| CC(C)NCC(O)c1ccc(OCc2ccccc2)c(OCc2ccccc2)c1-c1ccccc1 (configuration not stated) | > 100 µM | 3.13 µM | 4.55 µM | 3.11 µM |  |  | 3.16 µM | 11.6 µM | 3.14 µM | 3.22 µM | 2.98 µM | 6.94 µM | 3.79 µM | 3.06 µM |  |  | 3.17 µM | 3.04 µM |  |
| COc1ccc2c(c1)N=C1CSC(c3cc([N+](=O)[O-])ccc3Cl)N1C2 (configuration not stated) | 82 µM | > 100 µM | 77.8 µM | 59.3 µM | 71.2 µM | 86.8 µM | 68.2 µM |  |  |  | 71.2 µM | 71.5 µM | > 100 µM | 33 µM | 47.6 µM | 46.3 µM | 47.4 µM | 68.4 µM | 55.7 µM |
| CC(C)OP(=O)(OC(C)C)C(=Nc1ccccc1)NNc1ccc([N+](=O)[O-])cc1 |  | > 100 µM | 41.9 µM |  | 52.5 µM | 41.4 µM | > 100 µM |  |  | > 100 µM | > 100 µM | 40.2 µM | > 100 µM | > 100 µM |  | 43.6 µM | 31.2 µM |  | 46.2 µM |
| COP1(=O)Oc2ccccc2C(=O)C(C(F)(F)F)(C(F)(F)F)O1 (configuration not stated) | > 100 µM | > 100 µM | > 100 µM |  | > 100 µM | > 100 µM | > 100 µM | > 100 µM |  |  | > 100 µM | > 100 µM | > 100 µM | > 100 µM |  | > 100 µM | > 100 µM | > 100 µM | > 100 µM |
